Test results taken from US20190300851A1, “HUMAN STEM CELL DERIVED ENDOTHELIAL CELLS, ENDOTHELIAL-HEPATOCYTE CO-CULTURE SYSTEM AND USES THEREOF” (AGENCY FOR SCIENCE, TECHNOLOGY AND RESEARCH, priority 2016, published 2019).
“Also recorded” adds a separate entry of the source.

What was measured:
IL-8 [1] = test: IL-8 ELISA of conditioned media of IL-1β-stimulated hPSC-HEPs; assay type: cell-based, human; details: 10 μM, 48 hours
Description: Hepatocytes were generated from hPSCs by a growth factor-based differentiation protocol described in our previous protocol. After 20 days of differentiation, the cells were harvested using a serial 2× TrypLE Express treatment and further dissociated into single cells by passing them through a 40 μm cell strainer. These single cells were then seeded at 2.5×10^5 cells per well in a Collagen I (50 μg/ml, Biolaboratories, Cat. No.: 354236)-coated dishes. Attachment and recovery were promoted by seeding them in step IV differentiation medium with Hepatocyte growth factor (R&D, Cat. No.: 294-HGN-005), Follistatin (R&D, Cat. No.: FS-288), Oncostatin (R&D, Cat. No.: 295-OM-010) and Y-27632 (Rock Inhibitor) to prevent anoikis in the freshly harvested hPSC-HEPs. Next day, media was changed to Williams E medium (Sigma, Cat. No.: W1878) without serum and cells were serum starved overnight prior to nutraceutical treatments. Nutraceuticals quercetin (Sigma, Cat. No.: Q4951) and genistein (Sigma, Cat. No.: G6649) were administered at a single dose of 10 μM. Hepatocytes in this work were derived from H9-ESCs. […]
(§1) Conditioned EGM-2 media were collected, and concentration of human IL-8 was determined using the human IL-8 ELISA kit (Invitrogen, cat. no. KHC0081) according to manufacturer's instructions.

[2] = system: IL-1β-stimulated hPSC-HEPs; test: Inflammatory marker gene expression (qPCR) in IL-1β-stimulated hPSC-HEPs; assay type: cell-based, human; details: 10 μM, 48 hours
Description: (§2) Hepatocytes were generated from hPSCs by a growth factor-based differentiation protocol described in our previous protocol. After 20 days of differentiation, the cells were harvested using a serial 2× TrypLE Express treatment and further dissociated into single cells by passing them through a 40 μm cell strainer. These single cells were then seeded at 2.5×10^5 cells per well in a Collagen I (50 μg/ml, Biolaboratories, Cat. No.: 354236)-coated dishes. Attachment and recovery were promoted by seeding them in step IV differentiation medium with Hepatocyte growth factor (R&D, Cat. No.: 294-HGN-005), Follistatin (R&D, Cat. No.: FS-288), Oncostatin (R&D, Cat. No.: 295-OM-010) and Y-27632 (Rock Inhibitor) to prevent anoikis in the freshly harvested hPSC-HEPs. Next day, media was changed to Williams E medium (Sigma, Cat. No.: W1878) without serum and cells were serum starved overnight prior to nutraceutical treatments. Nutraceuticals quercetin (Sigma, Cat. No.: Q4951) and genistein (Sigma, Cat. No.: G6649) were administered at a single dose of 10 μM. Hepatocytes in this work were derived from H9-ESCs. In hepatic characterization, primary human hepatocytes (PHH) and HUH7 cells were used as positive controls, while HeLa cells were used as negative control.
Total RNA was prepared using RNeasy mini kit (Qiagen, cat. no. 74104). […]

[3] = cited from earlier work
NFκB [4] = test: NFκB nuclear translocation (immunostaining) in IL-1β-stimulated hPSC-ECs, monoculture; assay type: cell-based, human; details: 10 μM, IL-1β-stimulated hPSC-ECs, monoculture
Description: (§3) After the hPSC colonies attached, they were first induced to drive early mesoderm differentiation for 36 hours, using a chemically defined media, supplemented with human recombinant FGF2 (20 ng/ml, R&D Systems, cat. no. 233-FB), LY294002 (10 μM, Sigma, cat. no. L9908), and human recombinant BMP4 (10 ng/ml, R&D Systems, cat. no. 314-BP). Lateral plate mesoderm was further induced for another 3.5 days in media supplemented with human recombinant FGF2 (20 ng/ml) and BMP4 (50 ng/ml), with media change every 2 days. On day 5, the lateral plate mesoderm population was trypsinized using TrypLE Express (Gibco, cat. no. 12604) and plated on matrigel-coated plates in the same basal media supplemented with FGF2 (4 ng/ml), SB431542 (10 μM, Sigma, cat. no. S4317) and VEGF (50 ng/ml, R&D Systems, cat. no. 293-VE) with media change every 2-3 days. On day 10, PECAM1-expressing endothelial cells were sorted using fluorescence-activated cell sorting with PECAM1 antibody (Biolegend, cat. no. 303110). The PECAM1+ cells were plated at a density of 5×10^4/cm^2 onto collagen I-coated plate in commercial media EGM-2 (Lonza, cat. no. CC-3162). For every 500 ml EGM-2 media used, the following supplements are included: human epidermal growth factor (0.5 ml); VEGF, 0.5 ml; R3-insulin growth factor-1, 0.5 ml; Ascorbic acid, 0.5 ml; Hydrocortisone, 0.2 ml; hFibroblast growth factor-beta, 2.0 ml; FBS, 10.0 ml; Gentamicin Amphotericin, 0.5 ml. hPSC-ECs were passaged using TrypLE Express when they reached more than 75% confluency. Fresh complete EGM-2 media were replaced every 2-3 days. All experiments were performed on cells up to passage 10. hPSC-ECs derived from three different cell lines, H9-ESCs (FIGS. 1-5), IMR90-iPSCs and BJ-iPSCs (FIGS. 7-8), were functionally characterized and used in inflammatory activation assays. In EC marker and functional characterization, human coronary artery ECs (HCAECs) were used as positive control, while HeLa cells and human hepatocellular carcinoma cells (HUH7) were used as negative controls.
(§4) Cells were fixed with 4% paraformaldehyde (Nacalai Tesque, cat. no. 09154-14) and permeabilized by 0.5% Triton X-100 (Acros Organics, cat. no. 215680010) in PBS with Ca^2+ and MG^2+ at room temperature. Blocking was performed using PBS with 10% serum overnight at 4° C. Cells were incubated with the respective primary antibody diluted in 0.1% serum containing PBS for 1 hour and secondary antibodies in 0.1% serum containing PBS for another hour. Washes were performed twice using 0.1% serum containing PBS. DAPI (1 μg/ml, Thermo, cat. no. D3571) was used to stain the cell nucleus for 10 min.

hPSC-ECs = test: LC-MS metabolic profile of nutraceuticals by hPSC-ECs; assay type: in vitro ADME, human; details: hPSC-EC conditioned media
IL-8 [5] = test: Endothelial-hepatocyte co-culture: IL-8 protein; assay type: cell-based, human; details: co-culture of hPSC-ECs with hPSC-HEPs, 10 μM for 48 hours prior to IL-1β stimulation
Description: (§5) H9-ESCs were used to generate the ECs and hepatocytes for co-culture experiments and assays with nutraceuticals. Both cell types were derived from an isogenic source of hPSC to ensure a robust endothelial-hepatic model without confounding phenotypic differences due to genetic variations. The IBIDI μ-slide 2×9 wells were used for creating the co-culture setup. Each minor well was first coated with Collagen I and then a total of 2.5×10^5 hPSC-ECs and hPSC-HEPs were seeded in individual wells in a 1:1 ratio within a major well to allow equivalent contribution of paracrine factors between the two cell types (FIG. 5A). After cell attachment, the media was changed to 1:1 William's E and EGM-2 without serum, to be commonly shared by hPSC-ECs and hPSC-HEPs in a major well. Upon overnight serum starvation, the co-cultures were pre-conditioned with 10 μM of Quercetin or Genistein for 48 hours prior to IL-1β stimulation.
as §1

[6] = system: co-culture of hPSC-ECs and hPSC-HEPs; test: LC-MS metabolite profile in co-cultured media of hPSC-ECs and hPSC-HEPs; assay type: in vitro ADME, human
Description: as §5
(§6) The metabolic potential of the hPSC-HEPs and primary rat hepatocytes (freshly isolated according to our previously established protocol) were tested by exposing them to nutraceuticals quercetin and genistein (10 μM) over different durations. Internal standard (Emodin, 10 ng/ml) was added to the conditioned media. The SPE column (Phenomenex, Strata C18-E, 55 μm, 70 Å) was conditioned by washing with 1 ml methanol and then 2 ml DI water. […]

NFκB [7] = test: hPSC-HEP conditioned media on IL-1β-stimulated hPSC-ECs: NFκB nuclear translocation; assay type: cell-based, human; details: hPSC-HEP conditioned media (10 μM, 48 hour) on IL-1β-stimulated hPSC-ECs
Description: HPSC-HEPs (1.25×10^5 cells/cm^2) were cultured for 48 hour in 1:1 William's E medium+EGM-2 without serum containing 10 μM Quercetin or 10 μM Genistein. Conditioned media from hPSC-HEPs treated with quercetin or genistein were collected, and added to hPSC-ECs (that were serum starved overnight) along with 20 ng/ml of IL-13 for determination of NFκB nuclear colocalization (at 1 hour), gene expression profile of inflammatory markers (at 6 hour), and IL-8 protein levels (1 day) upon inflammation.
as §4

NFκB [8] = test: Endothelial-hepatocyte co-culture: NFκB nuclear translocation in IL-1β-stimulated hPSC-ECs; assay type: cell-based, human; details: co-culture of hPSC-ECs with hPSC-HEPs, 10 μM for 48 hours prior to IL-1β stimulation
Description: as §5
as §4, with “Washes were performed twice using 0.1% serum containing PBS. DAPI (1 μg/ml, Thermo, cat. no. D3571) was used to stain the cell nucleus for 10 min.” left out

[9] = system: IL-1β-stimulated hPSC-ECs; test: Inflammatory marker gene expression (qPCR) in IL-1β-stimulated hPSC-ECs, monoculture; assay type: cell-based; details: 10 μM, up to 72 hours, IL-1β-stimulated hPSC-ECs, monoculture
Description: as §3
Total RNA was prepared using RNeasy mini kit (Qiagen, cat. no. 74104). Each RNA sample (250 ng) was reverse transcribed into cDNA using Maxima First Strand cDNA Synthesis kit (Thermo, cat. no. K1641). qPCR was performed on a StepOnePlus Real-Time PCR system (Thermo) using FAST SYBR green master mix (Thermo, cat. no. 4385616). Expression levels were normalized to the housekeeping gene glyceraldehyde 3-phosphate dehydrogenase (GAPDH).

hPSC-HEPs = test: LC-MS metabolic profile of nutraceuticals by hPSC-HEPs; assay type: in vitro ADME, human; details: human, 10 μM
Description: as §2
as §6, with “water. Conditioned media was added into the column and 1.5 mL 30% methanol was added to elute the impurity such as phenol red in the medium. 0.1% Formic acid methanol was added to the column to elute all the metabolites and internal standard out to a 15 mL tube. Liquid in the 15 mL tube was dried under N2 in a sample concentrator with 30° C. heater.” for “water.”

[10] = higher concentrations; cited from earlier work
IL-8 [11] = test: IL-8 ELISA of conditioned media of IL-1β-stimulated hPSC-ECs, monoculture; assay type: cell-based, human; details: 10 μM, 48 hours, IL-1β-stimulated hPSC-ECs, monoculture
Description: as §3, §1

primary rat hepatocytes = test: LC-MS metabolic profile of nutraceuticals by primary rat hepatocytes; assay type: in vitro ADME; details: rat, 10 μM
Description: The metabolic potential of the hPSC-HEPs and primary rat hepatocytes (freshly isolated according to our previously established protocol) were tested by exposing them to nutraceuticals quercetin and genistein (10 μM) over different durations. Internal standard (Emodin, 10 ng/ml) was added to the conditioned media. The SPE column (Phenomenex, Strata C18-E, 55 μm, 70 Å) was conditioned by washing with 1 ml methanol and then 2 ml DI water. Conditioned media was added into the column and 1.5 mL 30% methanol was added to elute the impurity such as phenol red in the medium. 0.1% Formic acid methanol was added to the column to elute all the metabolites and internal standard out to a 15 mL tube. Liquid in the 15 mL tube was dried under N2 in a sample concentrator with 30° C. heater. After drying the sample, 100 μL of 0.1% formic acid methanol was added to the 15 mL tube and vortex for 30 s and transfer to another 1.5 mL tube. The samples were then centrifuged at 13,000 rpm for 10 min at 4° C. and 10 μl of the supernatant was injected into LC-MS. High performance liquid chromatography combined with electrospray ionization ion trap time-of-flight multistage mass spectrometry (HPLC-DAD-ESI-ITTOF-MSn) analyses were performed with a Shimadzu LCMS-IT-TOF instrument, which was composed of two LC-20AD pumps, an SIL-20AC autosampler, a CTO-20A column oven, a CBM-20A system controller, an ESI ion source, and an IT-TOF mass spectrometer (Shimadzu, Kyoto, Japan).

- level of parent nutraceutical over time (hPSC-ECs): decrease over time
- metabolites detectable in medium [6]: detectable levels of various metabolites
- optimal duration of conversion into metabolites (most metabolites peaked) (hPSC-HEPs): 48 h
- time of treatment by which substantial metabolites had emerged (primary rat hepatocytes): ≤ 6 h
Compound: O=c1c(O)c(-c2ccc(O)c(O)c2)oc2cc(O)cc(O)c12 [quercetin]
- production of IL-8 protein from conditioned media (IL-8 [1]): significantly suppressed
- inflammatory gene (marker) expression [2]: significant reduction; also recorded: decreased most of the inflammatory marker expression
- bioavailability in human plasma ([3]; human plasma): very low
- plasma concentrations ([3]; plasma): 300 to 3500 nM
- NFκB nuclear translocation levels (NFκB [4]): remained elevated
- IL-8 protein levels / secretion (IL-8 [5]): remarkably decreased; also recorded: significantly reduced
- NFκB nuclear translocation (NFκB [7]): did not seem to inhibit
- NFκB nuclear translocation (colocalization) (NFκB [8]): significant suppression; also recorded: significantly decreased
- gene expression of inflammatory markers versus IL-1β stimulated levels [9]: did not show substantial reduction
- safety and tolerability [10]: safe and well tolerated
- IL-8 protein levels from conditioned media (IL-8 [11]): no significant reduction
